Read-outs that look alike come from different tables or passages of the source.
Legend:
Assay type in all cases: cell-based
[1] = tested on: HCV genotype 2a (HCV cell culture system, HCVcc); experiment: HCVcc genotype 2a JFH1 (JFH 5a-Rluc) virus in Huh7.5.1 cells, luciferase assay; details: Hepatitis C virus, Huh-7.5.1, 72 h, HCV genotype 2a JFH 5a-Rluc, 3 days, read-out: Replicon EC50 2a type
Method: (§1) From human liver cells (Huh7.5.1 cell) infected by hepatitis C virus, the anti-virus effects by the compound of the present invention were measured. From HCV genotype 1 b (HCV replicon system), genotype 2a (HCV cell culture system, HCVcc), and genotype 3a, the EC50 values were measured.
In order to measure the EC50 value from HCV genotype 2a, a luciferase assay was used. A JFH1 clone (JFH 5a-Rluc) virus constructed to have a Renilla luciferase enzyme (Rluc) gene in NS5A protein was infected with Huh7.5.1 cell being a host cell, and then the EC50 value was measured by taking cells grown for 3 days by treating the experimental compound under various concentration conditions, and analyzing the activity degree of the luciferase.

[2] = tested on: HCV genotype 1 b (HCV replicon system); experiment: HCV replicon system genotype 1b, Renilla luciferase activity; details: Hepatitis C virus, 72 h, HCV genotype 1b replicon, Rluc, 3 days, read-out: Replicon EC50 1b type
Method: as §1
In order to measure the EC50 value from HCV genotype 1 b, the degrees of HCV replication inhibitory activities of an experimental compound were measured. The EC50 value was measured by treating the experimental compound with the HCV replicon systems (genotype 1 b) having Renilla luciferase (Rluc) genes and genotype 1 b non-structure genes under various concentration conditions to compare the activity degree of the luciferase after 3 days elapsed time with that of the control.

[3] = tested on: HCV genotype 3a (HCV replicon system); experiment: HCV replicon system genotype 3a, firefly luciferase activity; details: Hepatitis C virus, 72 h; HCV genotype 3a replicon, Fluc, 3 days; read-out: Replicon EC50 3a type
Method: as §1
In order to measure the EC50 value from genotype 3a, the value was measured through the luciferase activity. A HCV replicon system having firefly luciferase (Fluc) genes and genotype 3a non-structure genes was used. The HCV replicon system having the genes as described above was used to treat the experimental compound under various concentration conditions, and then 3 days later, the EC50 value was measured by comparing the luciferase activity with that of the control.

[4] = tested on: hepatitis C virus mutant L31V of the NS5A region; experiment: Efficacy on resistant mutant L31V; details: read-out: EC50 L31V
Description: (§2) As a mutant resistant to hepatitis C virus, L31V and Y93H of the NS5A region, and double mutants thereof were applied.

[5] = tested on: hepatitis C virus mutant Y93H of the NS5A region; experiment: Efficacy on resistant mutant Y93H; details: read-out: EC50 Y93H
Description: as §2

SMILES | EC50 [1] | EC50 [2] | EC50 [3] | EC50 [4] | EC50 [5] | EC50 ([2]; range limits given with own units (pM to nM))
CCCCCCCCCCn1c2cc(NC(=O)[C@@H]3CCCN3C(=O)[C@H](NC(=O)OC)c3ccccc3)ccc2c2ccc(NC(=O)[C@@H]3CCCN3C(=O)[C@H](NC(=O)OC)c3ccccc3)cc21 [Example 24, dimethyl ((1R,1′R)-((2S,2′S)-(((9-decyl-9H-carbazole-2,7-diyl)bis(azanediyl))bis(carbonyl))bis(pyrrolidine-2,1-diyl))bis(2-oxo-1-phenylethane-2,1-diyl))dicarbamate] | 10 to 100 nM | ~10 pM |  |  |  | 
CCCCCOc1cccc(Cn2c3cc(NC(=O)[C@@H]4CCCN4C(=O)[C@H](NC(=O)OC)c4ccccc4)ccc3c3ccc(NC(=O)[C@@H]4CCCN4C(=O)[C@H](NC(=O)OC)c4ccccc4)cc32)c1 [Example 30, dimethyl ((1R,1′R)-((2S,2′S)-(((9-(3-(pentyloxy)benzyl)-9H-carbazole-2,7-diyl)bis(azanediyl))bis(carbonyl))bis(pyrrolidine-2,1-diyl))bis(2-oxo-1-phenylethane-2,1-diyl))dicarbamate] | ~1 nM | 10 to 100 pM | 0.071 nM |  |  | 
COC(=O)N[C@@H](C(=O)N1CCC[C@H]1C(=O)Nc1ccc2c3ccc(NC(=O)[C@@H]4CCCN4C(=O)[C@H](NC(=O)OC)c4ccccc4)cc3n(Cc3cccc(C(F)(F)F)c3)c2c1)c1ccccc1 [Example 44, dimethyl ((1R,1′R)-((2S,2′S)-(((9-(3-(trifluoromethyl)benzyl)-9H-carbazole-2,7-diyl)bis(azanediyl))bis(carbonyl))bis(pyrrolidine-2,1-diyl))bis(2-oxo-1-phenylethane-2,1-diyl))dicarbamate] | > 10 nM | ~10 pM | 0.01 to 0.1 nM |  |  | 
CCCCCCCCn1c2cc(NC(=O)[C@@H]3CCCN3C(=O)[C@H](NC(=O)OC)c3ccccc3)ccc2c2ccc(NC(=O)[C@@H]3CCCN3C(=O)[C@H](NC(=O)OC)c3ccccc3)cc21 [Example 26, dimethyl ((1R,1′R)-((2S,2′S)-(((9-octyl-9H-carbazole-2,7-diyl)bis(azanediyl))bis(carbonyl))bis(pyrrolidine-2,1-diyl))bis(2-oxo-1-phenylethane-2,1-diyl))dicarbamate] | 10 to 100 nM | 7.92 pM |  | 1 to 10 nM |  | 
COC(=O)N[C@@H](C(=O)N1CCC[C@H]1C(=O)Nc1ccc2c3ccc(NC(=O)[C@@H]4CCCN4C(=O)[C@H](NC(=O)OC)c4ccccc4)cc3n(Cc3cccc(OC4CCCC4)c3)c2c1)c1ccccc1 [Example 39, dimethyl ((1R,1′R)-((2S,2′S)-(((9-(3-(cyclopentyloxy)benzyl)-9H-carbazole-2,7-diyl)bis(azanediyl))bis(carbonyl))bis(pyrrolidine-2,1-diyl))bis(2-oxo-1-phenylethane-2,1-diyl))dicarbamate] |  | 1.13 pM | 0.00638 nM | 0.1 to 1 nM | 100 to 1000 nM | 
CCCCOc1ccc(Cn2c3cc(NC(=O)[C@@H]4CCCN4C(=O)[C@H](NC(=O)OC)c4ccccc4)ccc3c3ccc(NC(=O)[C@@H]4CCCN4C(=O)[C@H](NC(=O)OC)c4ccccc4)cc32)cc1 [Example 36, dimethyl ((1R,1′R)-((2S,2′S)-(((9-(4-butoxybenzyl)-9H-carbazole-2,7-diyl)bis(azanediyl))bis(carbonyl))bis(pyrrolidine-2,1-diyl))bis(2-oxo-1-phenylethane-2,1-diyl))dicarbamate] |  | 3.26 pM | 0.0126 nM | 0.1 to 1 nM | 100 to 1000 nM | 
CCCC(c1ccccc1)n1c2cc(NC(=O)[C@@H]3CCCN3C(=O)[C@H](NC(=O)OC)c3ccccc3)ccc2c2ccc(NC(=O)[C@@H]3CCCN3C(=O)[C@H](NC(=O)OC)c3ccccc3)cc21 (stereo partly drawn) [Example 28, dimethyl ((1R,1′R)-((2S,2′S)-(((9-(1-phenylbutyl)-9H-carbazole-2,7-diyl)bis(azanediyl))bis(carbonyl))bis(pyrrolidine-2,1-diyl))bis(2-oxo-1-phenylethane-2,1-diyl))dicarbamate] | 1 to 10 nM | 4.52 pM |  | < 0.1 nM |  | 
COC(=O)N[C@@H](C(=O)N1CCC[C@H]1C(=O)Nc1ccc2c3ccc(NC(=O)[C@@H]4CCCN4C(=O)[C@H](NC(=O)OC)c4ccccc4)cc3n(Cc3ccccc3C(F)(F)F)c2c1)c1ccccc1 [Example 43, dimethyl ((1R,1′R)-((2S,2′S)-(((9-(2-(trifluoromethyl)benzyl)-9H-carbazole-2,7-diyl)bis(azanediyl))bis(carbonyl))bis(pyrrolidine-2,1-diyl))bis(2-oxo-1-phenylethane-2,1-diyl))dicarbamate] | > 10 nM | ~10 pM |  |  |  | 
CCCCOc1ccccc1Cn1c2cc(NC(=O)[C@@H]3CCCN3C(=O)[C@H](NC(=O)OC)c3ccccc3)ccc2c2ccc(NC(=O)[C@@H]3CCCN3C(=O)[C@H](NC(=O)OC)c3ccccc3)cc21 [Example 32, dimethyl ((1R,1′R)-((2S,2′S)-(((9-(2-butoxybenzyl)-9H-carbazole-2,7-diyl)bis(azanediyl))bis(carbonyl))bis(pyrrolidine-2,1-diyl))bis(2-oxo-1-phenylethane-2,1-diyl))dicarbamate] | 1 to 10 nM |  |  |  |  | 100 to 1000 pM
CCCCn1c2cc(NC(=O)[C@@H]3CCCN3C(=O)[C@H](NC(=O)OC)c3ccccc3)ccc2c2ccc(-c3c[nH]c([C@@H]4CCCN4C(=O)[C@H](NC(=O)OC)c4ccccc4)n3)cc21 [Example 51, methyl ((R)-2-((S)-2-((9-butyl-7-(2-((S)-1-((R)-2-((methoxycarbonyl)amino)-2-phenylacetyl)pyrrolidine-2-yl)-1H-imidazole-4-yl)-9H-carbazole-2-yl)carbamoyl)pyrrolidine-1-yl)-2-oxo-1-phenylethyl)carbamate] | 0.387 nM | 14.5 pM | 0.193 nM |  |  | 
COC(=O)N[C@@H](C(=O)N1CCC[C@H]1C(=O)Nc1ccc2c3ccc(NC(=O)[C@@H]4CCCN4C(=O)[C@H](NC(=O)OC)c4ccccc4)cc3n(Cc3ccc(C(F)(F)F)cc3)c2c1)c1ccccc1 [Example 45, dimethyl ((1R,1′R)-((2S,2′S)-(((9-(4-(trifluoromethyl)benzyl)-9H-carbazole-2,7-diyl)bis(azanediyl))bis(carbonyl))bis(pyrrolidine-2,1-diyl))bis(2-oxo-1-phenylethane-2,1-diyl))dicarbamate] | > 10 nM | ~10 pM | 0.199 nM |  |  | 
CCCCn1c2cc(NC(=O)[C@@H]3CCCN3C(=O)[C@H](NC(=O)OC)c3ccccc3)ccc2c2ccc(-c3c[nH]c([C@@H]4CCCN4C(=O)[C@@H](NC(=O)OC)C(C)C)n3)cc21 [Example 52, methyl ((R)-2-((S)-2-((9-butyl-7-(2-((S)-1-((methoxycarbonyl)-L-valyl)pyrrolidine-2-yl)-1H-imidazole-4-yl)-9H-carbazole-2-yl)carbamoyl)pyrrolidine-1-yl)-2-oxo-1-phenylethyl)carbamate] | 0.171 nM | 12.3 pM | 0.148 nM |  |  | 
CCCCCCCCCCCCn1c2cc(NC(=O)[C@@H]3CCCN3C(=O)[C@H](NC(=O)OC)c3ccccc3)ccc2c2ccc(NC(=O)[C@@H]3CCCN3C(=O)[C@H](NC(=O)OC)c3ccccc3)cc21 [Example 27, dimethyl ((1R,1′R)-((2S,2′S)-(((9-dodecyl-9H-carbazole-2,7-diyl)bis(azanediyl))bis(carbonyl))bis(pyrrolidine-2,1-diyl))bis(2-oxo-1-phenylethane-2,1-diyl))dicarbamate] | 10 to 100 nM | 1.85 pM |  | 0.1 to 1 nM |  | 
CCCCCCCC(c1ccccc1)n1c2cc(NC(=O)[C@@H]3CCCN3C(=O)[C@H](NC(=O)OC)c3ccccc3)ccc2c2ccc(NC(=O)[C@@H]3CCCN3C(=O)[C@H](NC(=O)OC)c3ccccc3)cc21 (stereo partly drawn) [Example 29, dimethyl ((1R,1′R)-((2S,2′S)-(((9-(1-phenyloctyl)-9H-carbazole-2,7-diyl)bis(azanediyl))bis(carbonyl))bis(pyrrolidine-2,1-diyl))bis(2-oxo-1-phenylethane-2,1-diyl))dicarbamate] | 1 to 10 nM | 10 to 100 pM | 10 to 100 nM |  |  | 
COC(=O)N[C@@H](C(=O)N1CCC[C@H]1C(=O)Nc1ccc2c3ccc(NC(=O)[C@@H]4CCCN4C(=O)[C@H](NC(=O)OC)c4ccccc4)cc3n(C(C3CC3)C3CC3)c2c1)c1ccccc1 [Example 49, dimethyl ((1R,1′R)-((2S,2′S)-(((9-(dicyclopropylmethyl)-9H-carbazole-2,7-diyl)bis(azanediyl))bis(carbonyl))bis(pyrrolidine-2,1-diyl))bis(2-oxo-1-phenylethane-2,1-diyl))dicarbamate] | > 10 nM | 8.4 pM | 0.0766 nM |  |  | 

From patent US10421779B2, “Carbazole compound having anti-virus activity” (priority 2016, dated 2019)
